Data from patent publication US11021498B2 (Acorda Therapeutics, Inc., priority 2008, dated 2021).
Converted amounts (≈) assume the structure as drawn. Like-named read-outs stand apart in the source and are kept apart here.

Tests used:
alkaline phosphatase = settings: requires alkaline phosphatase; cited from earlier work
[1] = background and U.S. Pat. No. 4,322,410; cited from earlier work
[2] = Solubility of acetaminophen prodrugs in water; type: physicochemical
[3] = cited from earlier work
rat hippocampus = rat hippocampus insulted with quinolinic acid; cited from earlier work
myocytes = settings: guinea pigs, low-flow global myocardial ischemia 30 minutes, then 60 minutes of reperfusion; cited from earlier work
[4] = Goodman and Gillman's; cited from earlier work
[5] = water, room temperature, read-out: solubility in water at room temperature
[6] = Anesthesia and Analgesia 101, 90-96, 2005
[7] = British Journal of Anaesthesia 94 (5): 642-648, 2005

solubility [2, 5] [mg/mL] | SMILES | water solubility [1] | local tolerance profile [3, 6] [%] | local tolerance profile [3, 7] [%] | other results
 | CC(=O)Nc1ccc(OP(=O)(O)O)cc1 [4-acetamidophenyl dihydrogen phosphate] | 50 g per 100 mL |  |  | time in vitro to yield acetaminophen from the derivative (alkaline phosphatase): about 15 hours
~145 | CC(=O)Nc1ccc(OCOP(=O)(O)O)cc1 [(4-acetamidophenoxy)methyl dihydrogen phosphate] |  |  |  | solubility ([2]; water, solvent water, read-out: Solubility): 145 mg/mL
~13 (≈ 86 mM) | CC(=O)Nc1ccc(O)cc1 [Acetaminophen, N-(4-hydroxyphenyl)acetamide] | about 1.3 g per 100 mL | 0 | 52 | lipid peroxidation and superoxide anion generation (rat hippocampus): inhibit both lipid peroxidation and superoxide anion generation; apoptosis in myocytes (myocytes): decrease apoptosis in myocytes; half-life [4]: about 2 hours
 | CCN(CC)CC(=O)Oc1ccc(NC(C)=O)cc1 [Propacetamol, 4-acetamidophenyl 2-(diethylamino)acetate] |  | 49 | 90 | 
 | CC(=O)Nc1ccc(OCOP(=O)(O)O)cc1 [Sodium (4-acetamidophenoxy)methyl phosphate] |  |  |  | solubility ([2]; solvent water, phosphate): 160 mg/mL; solubility in water at room temperature ([2]; water, room temperature, phosphate): ~160 mg/mL
